Activity calls are given as the source filed them.
How the values were obtained:
Bcl-2-like protein 10 = Bcl-2-like protein 10 (Homo sapiens, UniProt Q9HD36); assay: Concentration-response of Bcl-B inhibitors by biochemical FP with TR3 (AID 1243); type: functional
[1] = A Cell Based Secondary Assay To Explore Cytotoxicity of Compounds that Sensitize Mycobacterium Tuberculosis to Beta-Lactam Antibiotics.; type: functional
[2] = CCR5-tropic HIV-1 fusion blockers – cell-based, CCR5-tropic Env, dose response (AID 2279); type: functional
Bcl-2-like protein 1 = Bcl-2-like protein 1 (Homo sapiens, UniProt Q07817); assay: blockers of BCLXL peptide binding – biochemical, fluorescence polarization, 1536-well, selectivity assay for MCL1 inhibitor project, dose response (AID 2218)
Chain of Bcl-2-like protein 1 (Q07817 whole entry): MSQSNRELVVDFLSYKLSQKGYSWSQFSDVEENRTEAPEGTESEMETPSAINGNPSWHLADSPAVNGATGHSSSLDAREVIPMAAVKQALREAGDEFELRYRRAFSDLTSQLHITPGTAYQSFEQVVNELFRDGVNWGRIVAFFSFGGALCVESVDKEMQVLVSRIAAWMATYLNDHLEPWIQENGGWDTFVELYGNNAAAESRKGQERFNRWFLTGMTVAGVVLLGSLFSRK

[3] = biological target: T1, Induced myeloid leukemia cell differentiation protein Mcl-1 (Homo sapiens, UniProt Q07820); assay: blockers of MCL1 binding to BIM peptide – biochemical, fluorescence polarization, BIM-BH3 peptide, 1536-well, dose response (AID 2217)
T1 sequence (Q07820 whole entry): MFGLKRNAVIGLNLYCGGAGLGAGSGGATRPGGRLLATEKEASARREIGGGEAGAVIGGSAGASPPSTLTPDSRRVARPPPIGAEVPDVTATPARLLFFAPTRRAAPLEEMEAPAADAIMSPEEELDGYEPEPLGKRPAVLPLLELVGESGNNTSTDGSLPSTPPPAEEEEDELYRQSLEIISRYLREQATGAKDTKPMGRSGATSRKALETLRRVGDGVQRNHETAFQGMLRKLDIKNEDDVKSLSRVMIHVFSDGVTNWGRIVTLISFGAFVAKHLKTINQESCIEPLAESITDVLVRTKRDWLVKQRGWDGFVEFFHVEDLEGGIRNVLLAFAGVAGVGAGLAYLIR

[4] = biological target: T1, Induced myeloid leukemia cell differentiation protein Mcl-1; type: functional
[5] = biological target: T2, Neuropeptide Y receptor type 1 (Homo sapiens, UniProt P25929); assay: Fluorescence-based counterscreen for agonists of NPY-Y2: cell-based high-throughput dose response assay for agonists of NPY-Y1.; type: functional
T2 sequence (P25929 whole entry): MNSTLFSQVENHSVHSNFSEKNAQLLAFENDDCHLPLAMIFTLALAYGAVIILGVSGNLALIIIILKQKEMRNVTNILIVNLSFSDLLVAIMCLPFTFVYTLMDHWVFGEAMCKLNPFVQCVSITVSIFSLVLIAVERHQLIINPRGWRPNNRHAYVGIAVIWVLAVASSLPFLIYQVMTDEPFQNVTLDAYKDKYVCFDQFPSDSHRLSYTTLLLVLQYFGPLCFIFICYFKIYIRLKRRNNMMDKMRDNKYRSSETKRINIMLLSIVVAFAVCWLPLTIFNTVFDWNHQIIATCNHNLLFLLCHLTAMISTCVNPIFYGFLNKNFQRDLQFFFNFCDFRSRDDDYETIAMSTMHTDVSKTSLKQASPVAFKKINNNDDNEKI

[6] = biological target: T3, Neuropeptide Y receptor type 2 (Homo sapiens, UniProt P49146); assay: Fluorescence-based cell-based high-throughput dose response assay for agonists of NPY-Y2. [Related pubchem assays: 1703 (Screening assay (CNGC inhibitors).), 1359 (Screening assay (NPY-Y2 potentiators or agonists).), 1304 (Screening assay (NPY-Y1 potentiators or agonists).), 1710 (Screening assay (NPY-Y2 agonists).), 1791 (Summary AID.)]; type: functional
T3 sequence (P49146 whole entry): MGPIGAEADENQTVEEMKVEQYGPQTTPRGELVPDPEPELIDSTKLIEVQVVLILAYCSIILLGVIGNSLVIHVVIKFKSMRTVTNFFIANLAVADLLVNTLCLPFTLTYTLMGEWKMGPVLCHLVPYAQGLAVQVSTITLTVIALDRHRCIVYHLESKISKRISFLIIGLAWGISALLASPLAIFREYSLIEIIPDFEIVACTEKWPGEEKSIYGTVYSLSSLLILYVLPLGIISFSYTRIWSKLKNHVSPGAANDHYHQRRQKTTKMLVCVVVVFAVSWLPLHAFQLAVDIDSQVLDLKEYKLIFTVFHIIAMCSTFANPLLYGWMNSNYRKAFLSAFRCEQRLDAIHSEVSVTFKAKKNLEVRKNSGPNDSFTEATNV

HEK293 = assay: Fluorescence-based counterscreen for potentiators or agonists of NPY-Y2: cell-based high-throughput dose response assay to identify inhibitors of cyclic nucleotide gated ion channel (CNGC) activity. In this assay, the parental HEK293 cell line transfected with a cyclic-nucleotide gated ion channel (CNGC)-based cAMP sensor is used to measure inhibition of isoproterenol-induced CNGC activity by test compound.; type: functional; details: Homo sapiens;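 note: stimulus is 1 µM isoproterenol at EC100 plus PDE inhibitor Ro 20-1724 at 25 µM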
[7] = mitochondrial function rescue without frataxin homolog – Friedreich's ataxia, plus single-dose screen, dose response (AID 1465); type: functional;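 note: yeast depleted of Yfh1p frataxin homolog grown on glycerol needing respiration; WST-1 tetrazolium dye reduction as measure of cellular dehydrogenase metabolic activity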
Protein RecA = biological target: T4, Protein RecA (Mycobacterium tuberculosis, UniProt P9WHJ3); assay: Fluorescence Cell-Free Homogeneous Dose Retest to Identify Inhibitors of RecA-Intein Splicing Activity. [Related pubchem assays (depositor defined):AID2097, AID2223, AID489010, AID492950]; type: functional
T4 sequence (P9WHJ3 whole entry): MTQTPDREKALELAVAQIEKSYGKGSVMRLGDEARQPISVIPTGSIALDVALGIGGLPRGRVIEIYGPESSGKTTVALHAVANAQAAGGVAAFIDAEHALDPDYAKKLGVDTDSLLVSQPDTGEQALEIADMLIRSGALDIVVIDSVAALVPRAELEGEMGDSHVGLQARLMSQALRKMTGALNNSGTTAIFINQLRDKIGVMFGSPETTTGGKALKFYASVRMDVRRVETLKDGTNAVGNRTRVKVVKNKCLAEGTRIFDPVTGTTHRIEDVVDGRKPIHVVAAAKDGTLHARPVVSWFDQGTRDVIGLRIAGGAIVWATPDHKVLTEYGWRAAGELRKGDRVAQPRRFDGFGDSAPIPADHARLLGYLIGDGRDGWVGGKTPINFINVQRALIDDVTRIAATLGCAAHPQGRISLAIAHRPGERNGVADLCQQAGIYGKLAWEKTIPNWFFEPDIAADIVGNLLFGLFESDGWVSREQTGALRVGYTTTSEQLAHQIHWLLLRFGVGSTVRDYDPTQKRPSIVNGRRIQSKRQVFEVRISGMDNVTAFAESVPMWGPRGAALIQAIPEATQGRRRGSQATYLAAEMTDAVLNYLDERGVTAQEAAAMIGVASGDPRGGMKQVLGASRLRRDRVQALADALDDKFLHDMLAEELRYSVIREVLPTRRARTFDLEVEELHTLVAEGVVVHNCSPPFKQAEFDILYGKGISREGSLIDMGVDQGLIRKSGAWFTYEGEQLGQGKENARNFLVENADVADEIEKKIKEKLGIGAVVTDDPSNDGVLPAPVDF

[8] = biological target: T5, Replicative DNA helicase DnaB (Mycobacterium tuberculosis, UniProt P9WMR3); assay: DnaB intein splicing inhibitors, dose response, biochemical, cell-free fluorescence (AID 449749); type: functional
T5 sequence (P9WMR3 whole entry): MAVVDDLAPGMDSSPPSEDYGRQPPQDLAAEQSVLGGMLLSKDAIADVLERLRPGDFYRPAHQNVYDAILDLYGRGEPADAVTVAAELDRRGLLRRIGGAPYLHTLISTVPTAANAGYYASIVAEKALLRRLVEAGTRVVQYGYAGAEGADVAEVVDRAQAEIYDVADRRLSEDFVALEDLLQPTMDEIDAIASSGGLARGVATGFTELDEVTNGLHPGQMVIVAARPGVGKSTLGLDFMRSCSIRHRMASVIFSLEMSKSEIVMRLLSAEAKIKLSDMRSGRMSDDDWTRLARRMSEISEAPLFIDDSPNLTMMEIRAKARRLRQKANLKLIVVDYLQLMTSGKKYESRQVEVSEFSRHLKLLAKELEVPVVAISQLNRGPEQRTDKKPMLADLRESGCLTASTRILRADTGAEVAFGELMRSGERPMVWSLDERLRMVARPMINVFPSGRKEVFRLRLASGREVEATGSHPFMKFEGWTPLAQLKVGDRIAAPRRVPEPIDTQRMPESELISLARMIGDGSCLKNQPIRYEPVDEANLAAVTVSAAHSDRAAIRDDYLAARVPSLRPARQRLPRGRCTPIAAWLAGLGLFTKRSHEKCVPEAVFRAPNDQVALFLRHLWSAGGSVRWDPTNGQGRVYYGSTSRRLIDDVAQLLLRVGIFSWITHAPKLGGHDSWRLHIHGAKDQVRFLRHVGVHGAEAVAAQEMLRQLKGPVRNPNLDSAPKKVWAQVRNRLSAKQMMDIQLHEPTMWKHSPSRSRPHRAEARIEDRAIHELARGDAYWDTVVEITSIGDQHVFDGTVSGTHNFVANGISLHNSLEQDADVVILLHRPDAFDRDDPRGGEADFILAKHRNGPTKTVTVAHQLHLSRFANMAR

[9] = biological target: Heat shock 70 kDa protein 1A (Homo sapiens, UniProt P0DMV8); assay: inhibition of Hsp70 binding activity – biochemical, fluorescence polarization, SAR follow-up (AID 1072)
Chain of Heat shock 70 kDa protein 1A (P0DMV8 whole entry): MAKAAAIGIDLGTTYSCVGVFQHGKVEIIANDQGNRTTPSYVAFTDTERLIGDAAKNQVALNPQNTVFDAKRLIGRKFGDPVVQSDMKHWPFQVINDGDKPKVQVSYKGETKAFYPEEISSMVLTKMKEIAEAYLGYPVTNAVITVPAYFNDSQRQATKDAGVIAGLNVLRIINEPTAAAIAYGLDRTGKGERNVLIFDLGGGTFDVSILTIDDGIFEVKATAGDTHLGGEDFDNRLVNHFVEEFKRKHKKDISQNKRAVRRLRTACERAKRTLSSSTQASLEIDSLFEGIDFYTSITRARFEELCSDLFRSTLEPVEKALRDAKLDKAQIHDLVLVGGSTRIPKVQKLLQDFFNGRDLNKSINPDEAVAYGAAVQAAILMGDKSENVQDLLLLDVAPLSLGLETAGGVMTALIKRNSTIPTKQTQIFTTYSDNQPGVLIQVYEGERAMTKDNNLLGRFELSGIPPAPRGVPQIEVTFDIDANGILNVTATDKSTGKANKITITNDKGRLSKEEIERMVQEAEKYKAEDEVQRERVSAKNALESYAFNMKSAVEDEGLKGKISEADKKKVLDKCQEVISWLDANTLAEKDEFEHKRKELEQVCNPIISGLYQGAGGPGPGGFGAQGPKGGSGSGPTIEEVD

[10] = biological target: Glyceraldehyde-3-phosphate dehydrogenase (Homo sapiens, UniProt P04406)
Chain of Glyceraldehyde-3-phosphate dehydrogenase (P04406 whole entry): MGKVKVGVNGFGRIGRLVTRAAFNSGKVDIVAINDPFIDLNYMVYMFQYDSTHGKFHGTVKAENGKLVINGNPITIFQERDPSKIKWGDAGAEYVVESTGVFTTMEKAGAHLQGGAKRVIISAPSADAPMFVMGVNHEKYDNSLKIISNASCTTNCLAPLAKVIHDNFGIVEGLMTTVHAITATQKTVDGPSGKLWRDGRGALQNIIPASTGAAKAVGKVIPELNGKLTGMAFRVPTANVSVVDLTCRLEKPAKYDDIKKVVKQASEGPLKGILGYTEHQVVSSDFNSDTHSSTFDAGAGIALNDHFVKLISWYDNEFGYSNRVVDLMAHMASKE

[11] = biological target: Heat shock cognate 71 kDa protein (Homo sapiens, UniProt P11142); assay: In Vitro Hsc70 Dose Response Fluorescence Polarization Assay. [Related pubchem assays: 1072 ]
Chain of Heat shock cognate 71 kDa protein (P11142 whole entry): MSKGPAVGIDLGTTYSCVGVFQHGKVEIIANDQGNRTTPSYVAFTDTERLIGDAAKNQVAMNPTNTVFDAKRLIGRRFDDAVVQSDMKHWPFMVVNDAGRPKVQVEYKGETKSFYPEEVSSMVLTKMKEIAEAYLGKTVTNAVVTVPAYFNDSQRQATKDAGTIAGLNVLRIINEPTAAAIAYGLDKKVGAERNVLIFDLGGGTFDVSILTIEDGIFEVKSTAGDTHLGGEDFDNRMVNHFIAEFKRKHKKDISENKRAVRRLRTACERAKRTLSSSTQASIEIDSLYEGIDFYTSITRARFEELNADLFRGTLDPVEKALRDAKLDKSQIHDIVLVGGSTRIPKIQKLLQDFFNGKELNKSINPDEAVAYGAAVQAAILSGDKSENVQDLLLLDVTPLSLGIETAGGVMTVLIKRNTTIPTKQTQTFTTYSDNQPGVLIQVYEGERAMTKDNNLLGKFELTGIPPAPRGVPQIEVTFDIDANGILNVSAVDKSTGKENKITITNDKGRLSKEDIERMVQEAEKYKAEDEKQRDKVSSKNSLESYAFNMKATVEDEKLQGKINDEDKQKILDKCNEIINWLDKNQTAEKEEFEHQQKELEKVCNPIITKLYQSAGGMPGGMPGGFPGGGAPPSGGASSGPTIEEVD

Chain of Bcl-2-like protein 10 (Q9HD36 whole entry): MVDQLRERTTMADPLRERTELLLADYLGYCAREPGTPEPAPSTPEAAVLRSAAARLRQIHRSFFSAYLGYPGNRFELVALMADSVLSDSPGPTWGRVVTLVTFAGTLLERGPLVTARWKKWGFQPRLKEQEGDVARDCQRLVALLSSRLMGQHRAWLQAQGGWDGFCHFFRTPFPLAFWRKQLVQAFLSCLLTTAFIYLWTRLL

Which EC50 (Bcl-2-like protein 10) does the source give for `O=C(O)c1cccc2c1NC(c1cccc(Cl)c1Cl)C1CC=CC21` (stereo not given) here?
The EC50 was 2.67 µM (active).

For `O=[N+]([O-])c1cc(Cl)cc(/C=N/NC(=S)Nc2cc(S(=O)(=O)N3CCOCC3)ccc2Cl)c1O`, which CC50 [1] is on record?
The CC50 was 25.7 µM (active).

And the IC50 [2]?
Its IC50 is 25.1 µM (active).

What about the IC50 (Bcl-2-like protein 1) of the same compound?
The IC50 was > 109 µM (not active).

And the IC50 [3]?
The IC50 was 49.3 µM (not active).

And the IC50 [4]?
The IC50 was 2.19 µM (active).

What does the source list for `CCCOc1ccc(/C=N/Nc2ccc(C(=O)O)cc2)c(OCCC)c1`?
EC50 [5]: 16.5 µM (not active); EC50 [6]: 26.3 µM (not active); EC50 (HEK293): 11.4 µM (not active)

Which EC50 [7] does the source give for `O=C1C=Cc2ccccc2C1=O` [1,2-NAPHTHOQUINONE] here?
Its EC50 is > 100 µM (active).

What about the EC50 (Protein RecA) of the same compound?
The EC50 was 9.13 µM (active).

And the AC50 [8]?
Its AC50 is 5.81 µM (active).

For `Nc1ncnc2c1ncn2[C@@H]1O[C@H](COP(=O)(O)OP(=O)(O)OP(=O)(O)O)[C@@H](O)[C@H]1O` [ADENOSINE TRIPHOSPHATE], which IC50 [9] is on record?
The IC50 was 3.37 µM (active).

And the IC50 [10]?
Its IC50 is > 100 µM (not active).

And the IC50 [11]?
Its IC50 is 17.3 µM (active).
